# Patent publication US20210230179A1, “THIENO[2,3-B]PYRIDINE DERIVATIVES AS EPAC INHIBITORS AND THEIR PHARMACEUTICAL USES” (INSTITUT NATIONAL DE LA SANTE ET DE LA RECHERCHE MEDICALE …, priority 2018, published 2021)
# Like-named read-outs stand apart in the source and are kept apart here.
# Tests used:
# Epac1 = biological target: T1, Epac1 (Homo sapiens, UniProt O95398); assay: biochemical; conditions: for IC50: read-out: IC50, Epac1 GEF activity
# T1 sequence (O95398 191-923 limits assumed): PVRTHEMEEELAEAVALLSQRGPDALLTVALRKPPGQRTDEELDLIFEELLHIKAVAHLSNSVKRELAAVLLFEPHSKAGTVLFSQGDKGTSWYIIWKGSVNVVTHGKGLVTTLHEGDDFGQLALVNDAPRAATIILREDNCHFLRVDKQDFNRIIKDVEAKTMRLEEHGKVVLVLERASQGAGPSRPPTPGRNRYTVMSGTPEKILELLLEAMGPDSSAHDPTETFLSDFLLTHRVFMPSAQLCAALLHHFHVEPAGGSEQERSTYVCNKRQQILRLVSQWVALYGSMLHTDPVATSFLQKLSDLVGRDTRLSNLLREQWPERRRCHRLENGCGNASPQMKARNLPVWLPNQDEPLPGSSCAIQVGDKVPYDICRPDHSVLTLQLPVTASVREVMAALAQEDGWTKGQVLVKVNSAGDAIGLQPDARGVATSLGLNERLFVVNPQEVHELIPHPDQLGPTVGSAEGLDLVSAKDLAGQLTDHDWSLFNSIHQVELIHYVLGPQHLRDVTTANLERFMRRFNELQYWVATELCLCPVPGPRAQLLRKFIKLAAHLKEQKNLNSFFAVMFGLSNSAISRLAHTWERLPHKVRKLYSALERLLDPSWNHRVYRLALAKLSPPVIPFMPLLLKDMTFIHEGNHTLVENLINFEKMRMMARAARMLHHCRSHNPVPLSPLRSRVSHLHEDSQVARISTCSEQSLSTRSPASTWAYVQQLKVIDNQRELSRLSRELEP
# Excerpt: FIGS. 4-8. […] Variations of relative fluorescence units (RFU) were studied as a function of time and fitted to single exponentials.
# type II PKA holoenzyme = type II PKA holoenzyme activation; assay type: biochemical; conditions: 30 μM, presence and absence of 10 μM cAMP
# [1] = tested on: isolated adult cardiomyocytes; assay: hypoxia-reoxygenation injury of isolated adult cardiomyocytes (LDH release); assay type: cell-based, mouse
# wild-type C57BL/6 mice = assay: chronic ISO infusion (chronic β-AR activation): cardiac function, remodelling, tolerability
# Excerpt: FIG. 17: AST and ALT activities in the serum of mice treated under the indicated conditions (left panel) (n=7 per group). Comparison of FS in animals between day 1 and day 14 in the presence or absence of AM-001 (right panel) (n=12 per group).
# FIG. 18: LVW/TL ratios of mice after 14 days of treatment with vehicle or AM-001.
# FIG. 20: Comparison of FS, LVIDs and LVIDd in ISO treated animals between day 1 and day 14 in the presence or absence of AM-001 (n=18-20 per group).
# FIG. 21: Representative immunoblots of Epac1, GRK2, and GRK5. Statistical significance was determined by two-way ANOVA followed by Bonferroni post-test. * p<0.05, ** p<0.01, *** p<0.001, **** p<0.0001 vs indicated values. ns, not significant.
# Osmotic mini-pumps (Alzet) were implanted subcutaneously in mice anaesthetized with isoflurane (1%). Pumps were filled with ISO or sterile saline and were set to deliver ISO at 60 mg/kg per day for 14 days to induce cardiac hypertrophy. AM-001 treatment (10 mg/kg/d diluted in 10% DMSO/20% Kolliphor/70% sterile saline) is given from the third day of ISO infusion. Mice were subsequently euthanized with barbiturate overdose (pentobarbital, 150 mg/kg, i.p.) and mini-pumps were weighed in order to verify complete diffusion.
# Echocardiography was carried out on lightly anaesthetized (1% isoflurane in air) mice placed on a heating pad. The left ventricle dimensions were obtained during TimeMouvement mode acquisition from the parasternal short-axis view at the midventricular level of the papillary muscles using a Vevo2100 ivid7 echograph and a […] transducer (M550i13L, VisualsonicsGE Healthcare). Images were transferred and analysed off line with Vevolab software EchoPAC (GE Healthcare).
# Determination of fibrosis Hearts were transversely sectioned at 10 μm thickness, fixed with 4% paraformaladehyde and stained with Sirius Red. Slides were scanned with NanoZoomer (Hamamatsu v1.2) and fibrosis was measured as positively stained area with Sirius Red and expressed as percent of total area, using ImageJ software (RSB).
# Hearts were collected, fixed in 4% paraformaldehyde, dehydrated, and embedded in OCT tissue embedding compound (Tissue Tek, EMS). Longitudinal sections were performed at 10 μm in thickness and stained with hematoxylin and eosin for histological examination.
# Aspartate aminotransferase (AST) and alanine aminotransferase (ALT) were measured in serum to determine the cytotoxicity, using specific kits purchased from ScienCell Research Laboratories following the manufacturer's instructions.
# The inventors next sought to determine whether AM-001 could provide improvement in cardiac function and remodelling during chronic p-AR activation.
# [2] = ISO 60 mg/kg per day 14 days, AM-001 10 mg/kg from day 3
structure (smiles),measurement,setting,value
"Nc1c(C(=O)Nc2ccc(F)cc2)sc2nc(-c3cccs3)cc(-c3ccccc3)c12 [AM-001, 3-amino-N-(4-fluorophenyl)-4-phenyl-6-(thiophen-2-yl)thieno[2,3-b]pyridine-2-carboxamide]",effect on Epac1 GEF (exchange) activity,"Epac1; 30 μM Sp-8-CPT, 20 μM inhibitor",prevented Epac1 GEF activity
same,IC50,Epac1; Sp-8-CPT at its EC50 for the isoform,47.8 ± 1.1 µM
same,IC50,Epac1; saturating concentration of Sp-8-CPT,48.5 ± 1 µM
same,effect on type II PKA holoenzyme activation,type II PKA holoenzyme,did not influence
same,effect on 8-CPT-AM-induced cardiomyocyte death and hypertrophy,"[1]; AM-001 20 μM, 8-CPT-AM 10 μM",inhibited the effect
same,cardiomyocyte survival by LDH release,"[1]; HX+R condition, 20 μM, 30 min pretreatment, vs control cells",significantly increased cardiomyocyte survival
same,liver and renal histology (H & E staining),wild-type C57BL/6 mice; 10 mg/kg i.p. day 3 to day 14,did not display any apparent histological alterations
same,plasma level of alanine aminotransferase (ALT),wild-type C57BL/6 mice; 10 mg/kg i.p. day 3 to day 14,equivalent in each group
same,plasma level of aspartate aminotransferase (AST),wild-type C57BL/6 mice; 10 mg/kg i.p. day 3 to day 14,equivalent in each group
same,LVW/TL ratio under ISO,wild-type C57BL/6 mice; [2],further decreased
same,"fibrosis (Sirius Red positive area, percent of total area)",wild-type C57BL/6 mice; [2],1.1±0.5%
same,left ventricular end-diastolic internal diameter (LVIDd),wild-type C57BL/6 mice; during ISO treatment,decrease
same,left ventricular end-systolic internal diameter (LVIDs),wild-type C57BL/6 mice; during ISO treatment,decrease
same,ISO-induced upregulation of GRK5 expression,"wild-type C57BL/6 mice; immunoblot, ISO treated animals",significantly reduced
same,fractional shortening (FS) after 14 days of ISO,wild-type C57BL/6 mice; vs vehicle treated mice,higher FS
